Data reported in patent US20090048190A1, “Antiviral activity and resolution of 2-hydroxymethyl-5(5-fluorocytosin-1-yl)-1,3-oxathiolane” (priority 1990, published 2009).
Read-outs that look alike come from different tables or passages of the source.

How the values were obtained:
[1] = test system: uninfected human PBM cells
Source text: The cells were counted after 6 days using a hemacytometer and the trypan blue exclusion method, as described by Schinazi et al., Antimicrobial Agents and Chemotherapy, 22(3), 499 (1982).

[2] = Pharmacokinetics after intravenous administration to rats
HepG2 cells = conditions: 10 μM [3H]-(±)-FTC
FIV = assay: Antiretroviral activity in different cell systems, FIV; type: cell-based; conditions: CrFK (61E)
HIV-1 (strain LAV) = type: cell-based
Source text: It is often desirable to screen a number of racemic mixtures of nucleosides as a preliminary step to determine which warrant further resolution into enantiomerically enriched components and further evaluation of antiviral activity. The ability of nucleosides to inhibit HIV can be measured by various experimental techniques. The technique used herein, and described in detail below, measures the inhibition of viral replication in phytohemagglutinin (PHA) stimulated human peripheral blood mononuclear (PBM) cells infected with HIV-1 (strain LAV). The amount of virus produced is determined by measuring the virus-coded reverse transcriptase enzyme. The amount of enzyme produced is proportional to the amount of virus produced.
A. Three-day-old phytohemagglutinin-stimulated PBM cells (10^6 cells/ml) from hepatitis B and HIV-1 seronegative healthy donors were infected with HIV-1 (strain LAV) at a concentration of about 100 times the 50% tissue culture infectious dose (TICD 50) per ml and cultured in the presence and absence of various concentrations of antiviral compounds.
B. Approximately one hour after infection, the medium, with the compound to be tested (2 times the final concentration in medium) or without compound, was added to the flasks (5 ml; final volume 10 ml). AZT was used as a positive control.
C. The cells were exposed to the virus (about 2×10^5 dpm/ml, as determined by reverse transcriptase assay) and then placed in a CO2 incubator. HIV-1 (strain LAV) was obtained from the Center for Disease Control, Atlanta, Ga. The methods used for culturing the PBM cells, harvesting the virus and determining the reverse transcriptase activity were those described by McDougal et al. (J. Immun. Meth. 76, 171-183, 1985) and Spira et al. (J. Clin. Meth. 25, 97-99, 1987), except that fungizone was not included in the medium (see Schinazi, et al., Antimicrob. Agents Chemother. 32, 1784-1787 (1988); Id., 34:1061-1067 (1990)).
D. On day 6, the cells and supernatant were transferred to a 15 ml tube and centrifuged at about 900 g for 10 minutes. Five ml of supernatant were removed and the virus was concentrated by centrifugation at 40,000 rpm for 30 minutes (Beckman 70.1 Ti rotor). The solubilized virus pellet was processed for determination of the levels of reverse transcriptase. Results are expressed in dpm/ml of sampled supernatant. Virus from smaller volumes of supernatant (1 ml) can also be concentrated by centrifugation prior to solubilization and determination of reverse transcriptase levels.

[3] = CSF/serum ratio in rhesus monkeys; type: in vivo; conditions: 33.3 mg/kg, one hour after administration
human PBM cells = conditions: 10 μM radiolabeled FTC
Protocol: All studies were conducted in duplicate. […] Cells were exposed to the drug for 2, 6, 12, and 24 hours. At these timepoints, the medium was removed and the cells were washed two times with cold Hank's balanced salt solution. Extraction was performed with addition of 0.2 ml of 60% cold methanol/water and stored overnight at −70° C. The following morning, the suspensions were centrifuged and extractions were repeated two times for 0.5 hours at −70° C. The total supernatants (0.6 ml) were lyophilized to dryness. The residues were resuspended in 250 μl of water and aliquots of between 50 and 100 μl were analyzed by HPLC. Quantitation of intracellular parent drug and metabolic derivatives were conducted by HPLC.

HIV-2 = assay: Antiretroviral activity in different cell systems, HIV-2; type: cell-based; conditions: PBMC (ROD2)
Protocol: Cell lines were obtained from either human donors, AIDS Research and Reference Reagent Program, NIH, Rockville, Md., ATCC, or the Red Cross. The CEM thymidine kinase deficient cells were prepared by sequential passage of CEM cells in the presence of 5-bromo-2′-deoxyuridine.

HIV = assay: microbe, parasite or virus in culture; type: cell-based; conditions: MT4 system

**Q.** What does the source list for `Nc1nc(=O)n([C@@H]2CS[C@H](CO)O2)cc1F` (racemic) [(±)-FTC, (±)-β-D,L-2-hydroxymethyl-5-(5-fluorocytosin-1-yl)-1,3-oxathiolane]?
**A.** IC50 [1]: > 100000 nM; toxicity (CEM cells): > 100 µM; VSS (I.V., 33.3 mg/kg, individual monkeys (RUh, RMi, RJd)): 2.00 L/kg; F (bioavailability) (P.O., 33.3 mg/kg, individual monkeys (RUh, RMi, RJd)): 80%; plasma terminal half life (rhesus monkeys, mean of oral and I.V. administration): approximately 1.34±0.18; CLT ([2]; 10 mg/kg): 16.5 mL/min/kg; CLT ([2]; 50 mg/kg): 14.6 mL/min/kg; MRT ([2]; 50 mg/kg): 48 min; CLT ([2]; 100 mg/kg): 13.8 mL/min/kg; nontoxic at concentrations up to (other cell lines): up to 200 μM; toxicity (Vero cells): > 100 µM; uptake by HepG2 cells (HepG2 cells): taken up by HepG2 cells in large amounts; EC50 (FIV): ≤ 1000 nM; % Inhibition (Corrected) (HIV-1 (strain LAV); 0.0001 μM): 26.6%; DPM/ml (HIV-1 (strain LAV); 0.0001 μM): 73,755 DPM/ml; % Inhibition (Corrected) (HIV-1 (strain LAV); 0.005 μM): 16.3%; DPM/ml (HIV-1 (strain LAV); 0.005 μM): 83,005 DPM/ml; % Inhibition (Corrected) (HIV-1 (strain LAV); 0.01 μM): 41.3%; DPM/ml (HIV-1 (strain LAV); 0.01 μM): 60,465 DPM/ml; % Inhibition (Corrected) (HIV-1 (strain LAV); 0.05 μM): 70.4%; DPM/ml (HIV-1 (strain LAV); 0.05 μM): 34,120 DPM/ml; % Inhibition (Corrected) (HIV-1 (strain LAV); 0.1 μM): 92.4%; DPM/ml (HIV-1 (strain LAV); 0.1 μM): 14,160 DPM/ml; % Inhibition (Corrected) (HIV-1 (strain LAV); 0.5 μM): 88.1%; DPM/ml (HIV-1 (strain LAV); 0.5 μM): 18,095 DPM/ml; % Inhibition (Corrected) (HIV-1 (strain LAV); 1 μM): 99.7%; DPM/ml (HIV-1 (strain LAV); 1 μM): 7,555 DPM/ml; % Inhibition (Corrected) (HIV-1 (strain LAV); 5 μM): 99.3%; DPM/ml (HIV-1 (strain LAV); 5 μM): 7,940 DPM/ml; % Inhibition (Corrected) (HIV-1 (strain LAV); 10 μM): 101.7%; DPM/ml (HIV-1 (strain LAV); 10 μM): 5,810 DPM/ml; EC50 (HIV-1 (strain LAV); PBM cells, read-out: activity in PBM cells): ~10 nM; EC50 (HIV-1 (strain LAV); enantiomers resolved by HPLC (Example 4), Table 4, read-out: EC50): 18 nM; EC50 (HIV-1 (strain LAV); enantiomers resolved by method of Example 3, FIG. 6, read-out: EC50): 17 nM; EC50 (HIV-1 (strain LAV); human PBM cells, HIV-1 strain LAV, Table 3, read-out: Antiviral EC50): 10 nM; ability to cross the blood-brain barrier [3]: significant amount of active compound passes through the blood-brain barrier; uptake in human lymphocytes (human PBM cells): readily taken up; EC50 (HIV-2): 3.8 nM; IC50 (HIV): 520 nM
